Reference: patent US9408845B2, “Formulations containing pyridazine compounds” (Northwestern University, priority 2006, dated 2016)
Entries after “also recorded” stand apart in the source; their conditions may differ. Like-named read-outs stand apart in the source and are kept apart here. Values belong to the compound of their own block, whether it stands above or below them.

Key:
[1] = test system: nitric oxide (NO) production in BV-2 microglial cells; assay: LPS-stimulated accumulation of nitrite (NO metabolite) in BV-2 cells, Griess assay; assay type: cell-based, mouse; details: for IC50: read-out: NO, concentration required for 50% inhibition, LPS-stimulated BV-2 cells, 16 hrs; for inhibition of LPS-stimulated accumulation of the NO metabolite, nitrite / selectivity (inhibits IL-1β but not production of NO, iNOS, COX-2): BV-2 cells; for inhibition of LPS-stimulated accumulation of the NO metabolite, nitrite: concentrations up to 33 μM; for selectivity (inhibits IL-1β but not production of NO, iNOS, COX-2): same concentration range
Procedure: (§2) Glia cell-based assays of the concentration-dependent activity of the compounds were done as previously described (Hu T, Ralay Ranaivo et al., Current Alzheimer's Research 2005, 2:197-205; Mirzoeva. S, et al., J Med Chem 2002, 45:563-566; Ralay Ranaivo H, et al., 3 Neurosci 2006, 26:662-670). BV-2 mouse microglial cells were cultured for one day in multiwell plates and then treated in serum-free media for 16 his with either control buffer or the standard glial activating stimulus lipopolysaccharide (LPS, front Salmonella typhimurium; 100 ng/ml) in the presence of diluent or different concentrations of compounds. The accumulation of nitrite, the stable metabolite of nitric oxide (NO), was measured in V-2 conditioned media by the Griess assay as previously described (Hu W, Ralay Ranaivo et al., Current Alzheimer's Research 2005, 2:197-205; Mirzoeva S, et al, J Med Chem 2002, 45:563-566; Mirzoeva 5, et al., Brain Res 1999, 844:126434). Levels of IL-1β, TNFα, MCP-1 and IL-1β in cell lysates were measured by the Mesoscale Discovery system as per the manufacturer's instructions. Cell lysates were analyzed by Western blots as described (Mirzoeva 5, et al., J. Med Chem 2002, 45:563-566; Ralay Ranaivo H, et al J Neurosci 2006, 26:662-670) to determine the levels of inducible nitric oxide synthase (iNOS) and cyclooxygenase-2 (COX-2).

[2] = test system: COX-2 production in activated BV-2 cells; assay: LPS-induced COX-2 levels in activated BV-2 cells, Western blot; assay type: cell-based, mouse
Procedure: as §2

[3] = test system: iNOS production in activated BV-2 cells; assay: LPS-induced iNOS levels in activated BV-2 cells, Western blot; assay type: cell-based, mouse
Procedure: as §2

[4] = test system: LPS-induced IL-1β production in BV-2 microglia cells; assay: LPS-induced IL-1β production in BV-2 microglial cells; details: for inhibition of LPS-induced increases of IL-1β: BV2 microglial cell line, concentration dependence; for IC50: read-out: IL-1β, concentration required for 50% inhibition
Procedure: as §2

[5] = test system: human Aβ infusion mouse model; assay: Human Aβ infusion mouse model, hippocampal neuroinflammation and synaptic biochemical endpoints; assay type: in vivo; details: hippocampus, Aβ-infused mice, oral compound
Procedure: The study design and treatment paradigm for intracerebroventricular (ICV) infusion of human oligomerie Aβ1-42 into the mouse will be as described previously (Craft et al., Neurobiol Aging 25:1283-1292, 2004b), except that compound administration will be by mouth. Female C57Bl/6 mice (Harlan) weighing 20-25 g (3-4 months old) will be housed in a pathogen free facility under an approximate 12 h/12 h dark and light cycle and they will have access ad libitum to food and water.
(§1) Once per day treatment will begin at day 21 after start of Aβ ICV infusion and continue for 14 days. Beginning at day 50 after start of Aβ ICV infusion, the Y maze test of spontaneous alternation will be used to evaluate hippocampus dependent spatial learning as described previously (Craf et al., J Mol. Neurosci. 24:115-122, 2004a). Briefly, each mouse will be placed in the “start” arm and then released to choose one of the two other arms. The mouse will be blocked from exiting the chosen arm for 30 s then they will be placed back in the start arm and released again to choose one of the two other arms. If the second choice is different from the first one, the mouse will be scored as alternating. Mice will be tested for 10 days with one trial per day, and a mean percent alternation will be calculated for each mouse. […] The brain will be removed and longitudinally bisected as described previously (Craft et al., Neurobiolo Aging 25:12834292, 2004b). […] The hippocampus will be dissected from the left half of the brain and snap-frozen for subsequent biochemical evaluation.
S100B levels in hippocampal supernatants will be measured by a empium-based ELISA essentially as previously described (Van Eldik and Griffin, Biochem Biophys Acta 1223:398-403, 1994). Synaptophysin levels in hippocampal supernatants will be quantified by ELISA following the procedure described previously (Craft at al, 20041, supra). PSD-95 levels will be determined by Western blots using anti-PSD-95 antibodies (1:100,000 dilution; Upstate Biotechnology) as described (Craft et al., 2004b).
It was previously shown that Aβ-induced neuroinflammation is an early event associated with the onset and progression of pathophysiology, and can be suppressed by an inhibitor of glial activation. Female C57Bl/6 mice (Harlan) weighing […] (3-4 months old) were housed in a pathogen free facility under an approximate 12 h/12 h dark and light cycle and had access ad libitum to food and water. All animal procedures were approved by the Northwestern Animal Care and Use Committee.

[6] = test system: human Aβ infusion mouse model; assay: Human Aβ infusion mouse model, Y maze behavioral assay; assay type: in vivo; details: 1.25, 2.5, 5, and 10 mg/kg
Text: as §1

[7] = test system: QT interval in Lead II electrocardiogram, anesthetized guinea pigs; assay: Cardiac QT interval prolongation assay in anesthetized guinea pigs; details: 0.3 mg/kg iv, positive control
Procedure: The QT interval studies are performed by evaluating compounds for effects on QT interval in Lead II electrocardiograms measured in anesthetized guinea pigs (Hirohashi et al., 1991, Arzneim.-Forsch./Drug Res 41:9-18), one of the species recommended in the FDA white paper. Vehicle or compound is administered orally at 15 mg/kg (dosing volume of 10 ml/kg) to groups of male guinea pigs (weighing 330-350 g), with 5 animals per group. […] Heart rate, arterial blood pressure, and QT intervals are measured at baseline, and at 15, 30, 45, and 60 min after compound administration. Sotalol administered iv at 0.3 mg/kg serves as the positive control compound. The QT intervals are corrected for changes in heart rate using both Bazetes and Fridericia's formulae. Any increase in QT interval values over baseline values exceeding the upper 95% confidence limit of the mean changes at the corresponding time point in the vehicle-treated control group for two consecutive observation times indicates significant QT interval prolongation in the individually treated animals.
The QT intervals (QTc) were corrected for changes in heart rate using both Bazett's and Fridericia's formulae.
The test substance was dissolved in 2% Tween 80 and administered by oral administration. The substance was treated at 15 mg/kg with a dosing volume of 10 ml/kg. Duncan Hartley derived guinea pigs provided by MDS Pharma Services—Taiwan Ltd were used. Sotalol was obtained from Sigma, USA.
Groups of guinea pigs (weighing 330-350 g) with 5 animals each were employed. The animals were anesthetized with urethane (1500 mg/kg, IV bolus injection in a volume of 5 ml/kg) and breathed spontaneously. Lead II ECG was obtained with subdermal needle electrodes and ECG signal conditioner. Heart rate was measured with a pulse rate tachometer. The carotid artery was cannulated with a catheter that was connected to a pressure transducer and a pressure processor for measurements of arterial blood pressure (BP). […] QTC intervals were obtained by correction for heart rate changes using Bazett's and Fridericia's formulae. Increase in QTc interval in individual treated guinea pigs that lies outside the upper limit of 95% confidence limits (mean±SD) of the changes for the vehicle-treated control at corresponding time points for two consecutive times is considered significant.

[8] = LPS-stimulated BV-2 cells, 16 hrs

Compound: 4-Methyl-6-phenyl-3-(4-pyridin-2-yl)piperazin-1-yl)pyridazine [Compound 8]
IC50 [1]: > 25 µM

Compound: 4-Methyl-6-phenyl-3-(4-pyridin-4-yl)piperazin-1-yl)pyridazine [Compound 9]
IC50 [1]: > 25 µM

Compound: 4-methyl-6-phenyl-3-(4-pyrimidin-2-ylpiperazin-1-yl)pyridazine [MW01-2-151SRM]
inhibition of LPS-stimulated accumulation of the NO metabolite, nitrite [1]: not inhibited
suppression of LPS-induced production of COX-2 [2]: does not suppress
suppression of LPS-induced production of iNOS [3]: does not suppress
inhibition of LPS-induced increases of IL-1β [4]: Concentration dependent inhibition

Compound: 4-pyridyl-6-phenyl-3-(4-pyrimidin-2-ylpiperazin-1-yl)pyridazine [MW01-6-189WH]
inhibition of LPS-stimulated accumulation of the NO metabolite, nitrite [1]: not inhibited
suppression of LPS-induced production of COX-2 [2]: does not suppress
suppression of LPS-induced production of iNOS [3]: does not suppress
inhibition of LPS-induced increases of IL-1β [4]: Concentration dependent inhibition

Compound: c1ccc(Cc2cc(-c3ccccc3)nnc2N2CCN(c3ncccn3)CC2)cc1 [Compound 2]
IC50 [1]: > 25 µM
IC50 [4, 8]: 5.3 ± 0.6 µM

IC50 [1]: 22 ± 3 µM
IC50 [4, 8]: 6.1 ± 2.5 µM
Compound: CC(C)Cc1cc(-c2ccccc2)nnc1N1CCN(c2ncccn2)CC1 [Compound 4]

IC50 [4, 8]: 46.1 ± 23.3 µM
Compound: Cc1cc(-c2ccccc2)nnc1N1CCN(c2cnccn2)CC1 [Compound 7]

IC50 ([4]; Mus musculus, BV-2, 16 h): 31.4 ± 4.9 µM
Compound: Cc1cc(-c2ccccc2)nnc1N1CCN(C2CCCCC2)CC1 [Compound 10, 3-(4-cyclohexylpiperazin-1-yl)-4-methyl-6-phenylpyridazine]

IC50 ([4]; Mus musculus, BV-2, 16 h): 48.9 ± 23.2 µM
Compound: Cc1cc(-c2ccccc2)nnc1N1CCN(C)CC1 [Compound 11, 4-Methyl-3-(4-methylpiperazin-1-yl)-6-phenylpyridazine]

IC50 ([1]; Mus musculus): 19 ± 8 µM
IC50 ([4]; Mus musculus, BV-2, 16 h): 9.5 ± 4 µM
Compound: Clc1cc(-c2ccccc2)nnc1N1CCN(c2ncccn2)CC1 [MW01-6-127WH, 4-chloro-6-phenyl-3-(4-pyrimidin-2-ylpiperazin-1-yl)pyridazine]

Compound: Cc1cc(-c2ccccc2)c(N2CCN(c3ncccn3)CC2)nn1 [MW01-7-057WH, 6-methyl-4-phenyl-3-(4-pyrimidin-2-ylpiperazin-1-yl)pyridazine]
selectivity (inhibits IL-1β but not production of NO, iNOS, COX-2) [1]: selective
inhibition of LPS-stimulated accumulation of the NO metabolite, nitrite [1]: not inhibited
suppression of LPS-induced production of COX-2 [2]: does not suppress
suppression of LPS-induced production of iNOS [3]: does not suppress
loss of PSD-95 [5]: did not block
loss of synaptophysin [5]: blocked
up-regulation of IL-1β [5]: did not block
up-regulation of S100B [5]: blocked
loss of PSD-95 ([5]; listed as MW01-2-057WH): no significant effect
inhibition of LPS-induced increases of IL-1β [4]: Concentration dependent inhibition
prevention of Y-maze behavioral deficit [6]: significantly effective

Compound: c1ccc(-c2cc(-c3ccncc3)c(NCC3CC3)nn2)cc1 [MW01-7-084WH, N-(cyclopropylmethyl)-6-phenyl-4-(pyridin-4-yl)pyridazin-3-amine]
selectivity (inhibits IL-1β but not production of NO, iNOS, COX-2) [1]: selective
inhibition of LPS-stimulated accumulation of the NO metabolite, nitrite [1]: not inhibited
suppression of LPS-induced production of COX-2 [2]: does not suppress
suppression of LPS-induced production of iNOS [3]: does not suppress
loss of PSD-95 [5]: prevented
loss of synaptophysin [5]: not as effective as MW01-2-151SRM
up-regulation of IL-1β [5]: blocked
up-regulation of S100B [5]: blocked
inhibition of LPS-induced increases of IL-1β [4]: Concentration dependent inhibition
prevention of Y-maze behavioral deficit [6]: trend toward preventing

Compound: CN1CCN(c2nnc(-c3ccccc3)cc2-c2ccncc2)CC1 [MW01-7-085WH, 3-(4-methylpiperazin-1-yl)-6-phenyl-4-(pyridin-4-yl)pyridazine]
selectivity (inhibits IL-1β but not production of NO, iNOS, COX-2) [1]: selective
inhibition of LPS-stimulated accumulation of the NO metabolite, nitrite [1]: not inhibited
suppression of LPS-induced production of COX-2 [2]: does not suppress
suppression of LPS-induced production of iNOS [3]: does not suppress
loss of PSD-95 [5]: prevented
loss of synaptophysin [5]: not as effective as MW01-2-151SRM
up-regulation of IL-1β [5]: blocked
up-regulation of S100B [5]: blocked
inhibition of LPS-induced increases of IL-1β [4]: Concentration dependent inhibition
prevention of Y-maze behavioral deficit [6]: trend toward preventing

Compound: c1ccc(-c2cc(N3CCCCC3)c(N3CCN(c4ncccn4)CC3)nn2)cc1 [MW01-7-107WH, 2-(4-(6-phenyl-4-(piperidin-1-yl)pyridazin-3-yl)piperazin-1-yl)pyrimidine]
selectivity (inhibits IL-1β but not production of NO, iNOS, COX-2) [1]: nonselective
inhibition of LPS-stimulated accumulation of the NO metabolite, nitrite [1]: also inhibited
suppression of LPS-induced production of COX-2 [2]: also inhibited
suppression of LPS-induced production of iNOS [3]: also inhibited
inhibition of LPS-induced increases of IL-1β [4]: Concentration dependent inhibition

Compound: c1ccc(-c2cc(-c3ccccc3)c(N3CCNCC3)nn2)cc1 [MW01-7-133WH, 4,6-diphenyl-3-piperazinylpyridazine]
selectivity (inhibits IL-1β but not production of NO, iNOS, COX-2) [1]: selective
inhibition of LPS-stimulated accumulation of the NO metabolite, nitrite [1]: not inhibited
suppression of LPS-induced production of COX-2 [2]: does not suppress
suppression of LPS-induced production of iNOS [3]: does not suppress
inhibition of LPS-induced increases of IL-1β [4]: Concentration dependent inhibition

Compound: CC(C)NCC(O)c1ccc(NS(C)(=O)=O)cc1 (stereo not shown) [sotalol, reference compound]
QTc interval prolongation [7]: caused significant prolongation; also recorded: significant increase
